Values after ≈ are worked out from the molar mass of the structure shown.

These results are taken from patent publication US4983596A, “3-pyrrolidinylthio-1-azabicyclo[3.2.0]-hept-2-ene-2-carboxylic acid derivatives and their preparation” (Fujisawa Pharmaceutical Company, Ltd., priority 1988, dated 1991).

The assay concerns P. aeruginosa 26. The assay is described as follows: in vitro Antimicrobial Activity, two-fold agar-plate dilution method (MIC). It is filed as cell-based. The conditions noted are these: Pseudomonas aeruginosa; Test strain P. aeruginosa 26; heart infusion agar; 10^6 viable cells per ml; incubation at 37° C. for 20 hours; read-out: MIC (minimal inhibitory concentration). How it is done: in vitro Antimicrobial Activity
in vitro Antimicrobial Activity was determined by the two-fold agar-plate dilution method as described blow. […]
The product of Example (2-1).

On to `C[C@@H](O)[C@H]1C(=O)N2C(C(=O)O)=C(S[C@@H]3CN[C@H](COCCF)C3)[C@H](C)[C@H]12` [Example (2-1), (4R,5S,6S)-3-[(2S,4S)-2-(2-fluoroethyloxymethyl)pyrrolidin-4-yl]thio-6-[(1R)-1-hydroxyethyl]-4-methyl-7-oxo-1-azabicyclo[3.2.0]hept-2-ene-2-carboxylic acid], for which the MIC is 0.39 µg/mL (≈ 1 µM).
